Source: patent publication US5318980A, “Sulphonylbenzyl-substituted imidazoles” (Bayer Aktiengesellschaft, priority 1992, dated 1994)

The molecules below were run on isolated aortic rings of rabbits, contraction induced by AII (assay: Inhibition of angiotensin II-induced contraction on isolated aortic rings of rabbits in vitro). Conditions: Oryctolagus cuniculus, 3rd=submaximum agonist concentration, read-out: IC50 against contractions induced by AII.
Format: cell-based, rabbit
Procedure: Rabbits of both sexes are stunned by a blow to the neck and exsanguinated or, where appropriate, anaesthetised with Nembutal (about 60-80 mg/kg i.v.) and sacrificed by opening the thorax. The thoracic aorta is removed, freed from attached connective tissue and divided into ring segments 1.5 mm wide, and the segments are introduced individually, under an initial load of about 3.5 g, into 10 ml organ baths containing carbogen-gassed KrebsHenseleit nutrient solution thermostatically controlled at 37° C. and having the following composition: 119 mmol/l of NaCl; 2.5 mmol/l of CaCl2 ×2 H2 O; 1.2 mmol/l to KH2 PO4; 10 mmol/l of glucose; 4.8 mmol/l of KCl; 1.4 mmol/l of MgSO4 ×7 H2 O and 25 mmol/l of NaHCO3.
The contractions are recorded isometrically by Statham UC2 cells via a bridge amplifier (ifd Mulheim or DSM Aalen), and are digitalised and evaluated by means of an A/D converter (system 570, Keithley Munich). The agonist dose/effect curves (DEC) are plotted hourly. For each DEC, 3 or 4 individual concentrations are applied to the baths at intervals of 4 minutes. The DEC and subsequent wash-out cycles (16 times for about 5 sec/min each with the above nutrient solution) are followed by a 28-minute resting or incubation phase, within which the contractions as a rule reach the starting value again.
The level of the 3rd DEC in the normal case is used as a reference parameter for evaluating the test substance which is to be investigated in subsequent passes and, for the subsequent DECs, is applied to the baths at the start of the incubation time in a dosage which increases each time. Each aortic ring is stimulated with always the same agonist over the entire day.
Agonists and their standard concentrations (application
The effect in each case at the 3rd=submaximum agonist concentration is taken as a basis for calculation of the IC50 (concentration at which the substance to be investigated causes 50% inhibition).

SMILES | IC50
CCCCc1nc(Cl)c(C(=O)O)n1Cc1ccc(S(=O)(=O)N2CCC[C@H]2C(=O)O)cc1 [Example 15] | 202 nM
CCCCc1nc(Cl)c(C(=O)O)n1Cc1ccc(S(=O)(=O)N2CCCCC2C(=O)O)cc1Cl (stereo not drawn) [Example 16] | 309 nM
CCCCc1nc(Cl)c(CO)n1Cc1ccc(S(=O)(=O)N2CCC[C@H]2C(=O)O)cc1Cl [Example 19] | 44 nM
CCCCc1nc(Cl)c(CO)n1Cc1ccc(S(=O)(=O)N2CCC[C@H]2C(=O)O)cc1 [Example 21] | 250 nM
CCCCc1nc(Cl)c(C(=O)O)n1Cc1ccc(S(=O)(=O)N2CCCCC2C(=O)O)cc1 (stereo not drawn) [Example 25] | 5 nM

The molecules below were run against T1, Angiotensin II receptor (Bos taurus, UniProt P25104) (assay: Interaction with the angiotensin II receptor on membrane fractions of the adrenal cortex (cattle), 3H-angiotensin II bonding). Conditions: bovine adrenal cortex membranes; 3H-angiotensin II (3-5 nM); 60 minutes at room temperature.
T1 construct: carried out on partly purified membrane fractions of bovine AC with radioactive angiotensin II; from tissue; host or cells: bovine adrenal cortex, freed from medulla, partly purified membrane fractions
T1 sequence (P25104 1-359): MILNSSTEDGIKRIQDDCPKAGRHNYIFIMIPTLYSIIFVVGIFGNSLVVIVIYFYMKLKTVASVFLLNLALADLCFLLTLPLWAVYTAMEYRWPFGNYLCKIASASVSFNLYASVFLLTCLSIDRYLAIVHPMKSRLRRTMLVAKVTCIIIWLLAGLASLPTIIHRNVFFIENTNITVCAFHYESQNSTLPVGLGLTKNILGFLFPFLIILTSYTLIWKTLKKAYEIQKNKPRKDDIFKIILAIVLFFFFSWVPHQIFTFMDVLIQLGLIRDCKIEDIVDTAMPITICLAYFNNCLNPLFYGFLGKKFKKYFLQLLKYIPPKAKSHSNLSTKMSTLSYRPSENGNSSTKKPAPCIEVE
Format: binding
Procedure: Adrenal cortices from cattle (AC), which are freshly removed and carefully freed from medulla from the capsule, are comminuted to a coarse membrane homogenate in sucrose solution (0.32M) with the aid of an Ultra-Turrax (Janke & Kunkel, Staufen i.B.), and the homogenate is partly purified to membrane fractions in two centrifugation steps.
The investigations on receptor bonding are carried out on partly purified membrane fractions of bovine AC with radioactive angiotensin II in an assay volume of 0.25 ml, which specifically contains the partly purified membranes (50-80 μg), ^3 H-angiotensin II (3-5 nM), test buffer solution (50 mM Tris, pH 7.2), 5 mM MgCl2 and the substances to be investigated. After an incubation time of 60 minutes at room temperature, the non-bonded radioactivity of the samples is separated off by means of moistened glass fibre filters (Whatman GF/C), and, after the protein has been washed with ice-cold buffer solution (50 mM Tris/HCl, pH 7.4, 5% PEG 6000), the radioactivity bonded is measured […] in a scintillation cocktail. The raw data were analysed with computer programs to give Ki and IC50 values (Ki : IC50 values corrected for the radioactivity used; IC50 values: concentration at which the substance to be investigated causes 50% inhibition of specific bonding of the radioligand).

SMILES | Ki
CCCCc1nc(Cl)c(C(=O)O)n1Cc1ccc(S(=O)(=O)N2CCC[C@H]2C(=O)O)cc1 [Example 15] | 400 nM
CCCCc1nc(Cl)c(C(=O)O)n1Cc1ccc(S(=O)(=O)N2CCCCC2C(=O)OC(C)(C)C)cc1Cl (stereo not drawn) [Example 18] | 200 nM

Each molecule was assayed on smooth muscle cells (assay: Inhibition of the proliferation of smooth muscle cells (3H-thymidine incorporation)). Conditions: at 10^-6 M (so in the source); growth stimulated with AII, serum or other factors.
Format: cell-based, rats or pigs
Procedure: Smooth muscle cells which are obtained from the aortas of rats or pigs by the media explantate technique are used to determine the antiproliferative action of the compounds [R. Ross, J. Cell. Biol. 50, 172, 1971]. The cells are sown in suitable culture dishes, as a rule 24-hole plates, and cultured for 2-3 days in medium 199 containing 7.5% of FCS and 7.5% of NCS, 2 mM of L-glutamine and 15 mM of HEPES, pH 7.4, in 5% CO2 at 37° C. Thereafter, the cells are synchronised by serum withdrawal for 2-3 days and then stimulated to growth with AII, serum or other factors. Test compounds are added at the same time. After 16-20 hours, 1 μCi of ^3 H-thymidine is added, and after a further 4 hours, the incorporation of this substance into the TCA-precipitatable DNA of the cells is determined.

SMILES | % inhibition at 10^6 M
CCCCc1nc(Cl)c(CO)n1Cc1ccc(S(=O)(=O)N2CCCCC2)cc1 [Example 11] | 20%
CCCCc1nc(Cl)c(CO)n1Cc1ccc(S(=O)(=O)N2CCC[C@H]2C(=O)OC(C)(C)C)cc1Cl [Example 12] | 70%
